Activity calls are given as the source filed them. No cut-off for these calls is given here.
Tests used:
NCI-H3122 [1] = assay: Cell cycle arrest in human NCI-H3122 cells assessed as accumulation of cells at G0/G1 phase at 0.625 uM incubated for 24 hrs by propidium iodide staining based flow cytometric analysis (reference value: 48.68%); type: functional
NCI-H3122 [2] = assay: Induction of apoptosis in human NCI-H3122 cells assessed as viable cells at 0.312 uM incubated for 48 hrs by Annexin V-FITC/propidium iodide staining based flow cytometric analysis (reference value: 95.66%); type: functional; conditions: read-out: Activity
[3] = target: Cyclin-dependent kinase 4 (Homo sapiens) (UniProt P11802); assay: Inhibition of CDK4 (unknown origin) at 0.05 uM by LANCE Ultra TR-FRET assay relative to control
[4] = target: T1, Protein cereblon/Cyclin-dependent kinase 4 (Homo sapiens, UniProt P11802+Q96SW2); assay: PROTAC activity at CRBN/CDK4 in human L02 cells assessed as reduction in CDK4 protein level at 1 to 20 uM incubated for 24 hrs in presence of GSH by Western blot analysis; type: cell-based; conditions: dose 1-20 µM
Target sequence in this assay (P11802 2-303 limits assumed): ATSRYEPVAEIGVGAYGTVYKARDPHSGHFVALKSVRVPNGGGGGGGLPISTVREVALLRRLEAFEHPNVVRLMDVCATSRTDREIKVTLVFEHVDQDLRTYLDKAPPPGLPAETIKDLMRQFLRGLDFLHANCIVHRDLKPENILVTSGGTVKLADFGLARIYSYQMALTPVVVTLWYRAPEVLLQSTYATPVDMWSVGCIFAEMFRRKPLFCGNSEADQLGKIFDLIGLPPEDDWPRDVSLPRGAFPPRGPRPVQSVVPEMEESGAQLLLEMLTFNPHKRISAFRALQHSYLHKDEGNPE
Target sequence in this assay (Q96SW2 whole entry partner): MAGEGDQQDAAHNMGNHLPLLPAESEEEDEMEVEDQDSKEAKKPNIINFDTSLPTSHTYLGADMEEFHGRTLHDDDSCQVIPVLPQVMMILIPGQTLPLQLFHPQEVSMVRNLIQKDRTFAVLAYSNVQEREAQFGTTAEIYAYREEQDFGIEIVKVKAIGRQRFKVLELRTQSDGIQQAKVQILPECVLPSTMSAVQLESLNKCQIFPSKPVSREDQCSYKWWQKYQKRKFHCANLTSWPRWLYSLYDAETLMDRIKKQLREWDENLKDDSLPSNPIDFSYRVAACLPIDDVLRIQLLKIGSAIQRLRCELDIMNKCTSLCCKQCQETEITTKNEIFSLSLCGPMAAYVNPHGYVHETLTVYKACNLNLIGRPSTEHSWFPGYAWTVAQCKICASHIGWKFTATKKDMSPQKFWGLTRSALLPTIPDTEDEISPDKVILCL

NCI-H3122 [5] = assay: Antiproliferative activity against human NCI-H3122 cells assessed as inhibition of cell growth incubated for 3 to 5 days by MTT assay; type: functional, cell-based
[6] = Toxicity in BALB/c nude mouse xenografted with human NCI-H3122 cells assessed as effect on lung function at 75 mg/kg, IG administered once daily for 18 days by H and E staining based assay; type: organism-based; conditions: in vivo, po, 432 h, time 18 day
[7] = target: T2, Protein cereblon/ALK tyrosine kinase receptor/Echinoderm microtubule-associated protein-like 4 (Homo sapiens) (UniProt Q9UM73+Q9HC35+Q96SW2); assay: PROTAC activity at CRBN/EML4-ALK in human NCI-H3122 cells assessed as induction of EML4-ALK fusion protein degradation at 5 uM measured at 16 to 48 hrs by Western blot analysis; type: cell-based; conditions: time 16-48 hrs
[8] = Toxicity in BALB/c nude mouse xenografted with human NCI-H3122 cells assessed as effect on visceral spleen morphology at 75 mg/kg, IG administered once daily for 18 days and measured after 12 hrs of last dose by H and E staining based analysis; type: organism-based; conditions: in vivo, po, 444 h
[9] = Toxicity in BALB/c nude mouse xenografted with human NCI-H3122 cells assessed as effect on spleen function at 75 mg/kg, IG administered once daily for 18 days by H and E staining based assay; type: organism-based; conditions: in vivo, po, 432 h, time 18 day
Mus musculus = assay: In vivo PROTAC activity at CDK4 in BALB/c nude mouse xenografted with human NCI-H3122 cells assessed as reduction in CDK4 protein expression level in tumor at 75 mg/kg, IG administered once daily for 18 days and measured after 12 hrs of last dose by immunohistochemical analysis; type: functional, organism-based; conditions: time 444.0 hrs
NCI-H3122 [10] = assay: Induction of apoptosis in human NCI-H3122 cells assessed as viable cells at 2.5 uM incubated for 48 hrs by Annexin V-FITC/propidium iodide staining based flow cytometric analysis (reference value: 95.66%); type: functional; conditions: read-out: Activity
[11] = target: T1, Protein cereblon/Cyclin-dependent kinase 4; assay: PROTAC activity at CRBN/CDK4 in human NCI-H3122 cells assessed as induction of CDK4 protein degradation at 5 uM measured after 16 hrs by Western blot analysis; type: cell-based
Target sequence in this assay (P11802 2-303 limits assumed): as the sequence (P11802 2-303 limits assumed) above
Target sequence in this assay (Q96SW2 whole entry partner): as the sequence (Q96SW2 whole entry partner) above

NCI-H3122 [12] = assay: Cell cycle arrest in human NCI-H3122 cells assessed as accumulation of cells at S phase at 0.312 uM incubated for 24 hrs by propidium iodide staining based flow cytometric analysis (reference value: 29.94%); type: functional
[13] = Toxicity in BALB/c nude mouse xenografted with human NCI-H3122 cells assessed as effect on visceral lung morphology at 75 mg/kg, IG administered once daily for 18 days and measured after 12 hrs of last dose by H and E staining based analysis; type: organism-based; conditions: in vivo, po, 444 h
NCI-H3122 [14] = assay: Induction of apoptosis in human NCI-H3122 cells assessed as early apoptotic cells at 2.5 uM incubated for 48 hrs by Annexin V-FITC/propidium iodide staining based flow cytometric analysis (reference value: 0.71%); type: functional
[15] = target: T1, Protein cereblon/Cyclin-dependent kinase 4; assay: PROTAC activity at CRBN/CDK4 in human L02 cells assessed as reduction in CDK4 protein level at 1 to 20 uM incubated for 24 hrs by Western blot analysis; type: cell-based; conditions: dose 1-20 µM
Target sequence in this assay (P11802 2-303 limits assumed): as the sequence (P11802 2-303 limits assumed) above
Target sequence in this assay (Q96SW2 whole entry partner): as the sequence (Q96SW2 whole entry partner) above

NCI-H3122 [16] = assay: Induction of apoptosis in human NCI-H3122 cells assessed as necrotic cells at 1.25 uM incubated for 48 hrs by Annexin V-FITC/propidium iodide staining based flow cytometric analysis (reference value: 0.57%); type: functional
[17] = target: T1, Protein cereblon/Cyclin-dependent kinase 4; assay: PROTAC activity at CRBN/CDK4 in human NCI-H3122 cells assessed as reduction in CDK4 protein level incubated for 24 hrs by Western blot analysis; type: cell-based
Target sequence in this assay (P11802 whole entry): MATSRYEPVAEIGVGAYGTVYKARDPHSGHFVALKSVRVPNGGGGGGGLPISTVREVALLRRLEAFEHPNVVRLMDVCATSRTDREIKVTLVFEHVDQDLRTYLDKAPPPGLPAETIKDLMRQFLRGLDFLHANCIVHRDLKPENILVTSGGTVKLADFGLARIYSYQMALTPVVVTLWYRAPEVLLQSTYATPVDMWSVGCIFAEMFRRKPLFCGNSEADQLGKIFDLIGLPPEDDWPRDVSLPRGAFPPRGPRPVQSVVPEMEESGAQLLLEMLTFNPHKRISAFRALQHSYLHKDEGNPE
Target sequence in this assay (Q96SW2 whole entry): as the sequence (Q96SW2 whole entry partner) above

[18] = target: T2, Protein cereblon/ALK tyrosine kinase receptor/Echinoderm microtubule-associated protein-like 4 (Homo sapiens); assay: PROTAC activity at CRBN/EML4-ALK in human L02 cells assessed as reduction in ALK protein level at 1 to 20 uM incubated for 24 hrs in presence of GSH by Western blot analysis; type: cell-based; conditions: dose 1-20 µM
NCI-H3122 [19] = assay: Induction of apoptosis in human NCI-H3122 cells assessed as late apoptotic cells at 2.5 uM incubated for 48 hrs by Annexin V-FITC/propidium iodide staining based flow cytometric analysis (reference value: 3.06%); type: functional
NCI-H2228 = assay: Antiproliferative activity against human NCI-H2228 cells assessed as inhibition of cell growth incubated for 3 to 5 days by MTT assay; type: functional, cell-based
NCI-H3122 [20] = assay: Induction of apoptosis in human NCI-H3122 cells assessed as late apoptotic cells at 0.312 uM incubated for 48 hrs by Annexin V-FITC/propidium iodide staining based flow cytometric analysis (reference value: 3.06%); type: functional
[21] = target: Protein cereblon/Cyclin-dependent kinase 6 (Homo sapiens) (UniProt Q00534+Q96SW2); assay: PROTAC activity at CRBN/CDK6 in human NCI-H3122 cells assessed as reduction in CDK6 protein level at 1 to 10 uM incubated for 24 hrs by Western blot analysis; type: cell-based; conditions: dose 1-10 µM
[22] = target: T2, Protein cereblon/ALK tyrosine kinase receptor/Echinoderm microtubule-associated protein-like 4 (Homo sapiens); assay: PROTAC activity at CRBN/EML4-ALK in human L02 cells assessed as reduction in ALK protein level at 1 to 20 uM incubated for 24 hrs by Western blot analysis; type: cell-based; conditions: dose 1-20 µM
NCI-H3122 [23] = assay: Induction of apoptosis in human NCI-H3122 cells assessed as viable cells at 0.625 uM incubated for 48 hrs by Annexin V-FITC/propidium iodide staining based flow cytometric analysis (reference value: 95.66%); type: functional; conditions: read-out: Activity
[24] = target: T2, Protein cereblon/ALK tyrosine kinase receptor/Echinoderm microtubule-associated protein-like 4 (Homo sapiens); assay: PROTAC activity at CRBN/EML4-ALK in human NCI-H3122 cells assessed as degradation of EML4-ALK fusion protein at 5 uM pretreated with pomalidomide for 4 hrs followed by compound addition and measured after 24 hrs by Western blot analysis; type: cell-based
[25] = Cytotoxicity against human L02 cells assessed as inhibition of cell growth pretreated with GSH followed by compound addition and incubated for 3 to 5 days by MTT assay; type: toxicity, cell-based
[26] = Toxicity in BALB/c nude mouse xenografted with human NCI-H3122 cells assessed as tolerance at 25 to 75 mg/kg, IG administered once daily for 18 days; type: organism-based; conditions: in vivo, po, 432 h, dose 25-75 mg/kg, time 18 day
[27] = target: T1, Protein cereblon/Cyclin-dependent kinase 4; assay: PROTAC activity at CRBN/CDK4 in human NCI-H3122 cells assessed as induction of CDK4 degradation at 5 uM pretreated with pomalidomide for 4 hrs followed compound addition and measured after 24 hrs by Western blot analysis; type: cell-based
Target sequence in this assay (P11802 2-303 limits assumed): as the sequence (P11802 2-303 limits assumed) above
Target sequence in this assay (Q96SW2 whole entry partner): as the sequence (Q96SW2 whole entry partner) above

T2 sequence (Q96SW2 whole entry partner, the tested form may be a part): as the sequence (Q96SW2 whole entry partner) above
T2 sequence (Q9HC35 whole entry partner, the tested form may be a part): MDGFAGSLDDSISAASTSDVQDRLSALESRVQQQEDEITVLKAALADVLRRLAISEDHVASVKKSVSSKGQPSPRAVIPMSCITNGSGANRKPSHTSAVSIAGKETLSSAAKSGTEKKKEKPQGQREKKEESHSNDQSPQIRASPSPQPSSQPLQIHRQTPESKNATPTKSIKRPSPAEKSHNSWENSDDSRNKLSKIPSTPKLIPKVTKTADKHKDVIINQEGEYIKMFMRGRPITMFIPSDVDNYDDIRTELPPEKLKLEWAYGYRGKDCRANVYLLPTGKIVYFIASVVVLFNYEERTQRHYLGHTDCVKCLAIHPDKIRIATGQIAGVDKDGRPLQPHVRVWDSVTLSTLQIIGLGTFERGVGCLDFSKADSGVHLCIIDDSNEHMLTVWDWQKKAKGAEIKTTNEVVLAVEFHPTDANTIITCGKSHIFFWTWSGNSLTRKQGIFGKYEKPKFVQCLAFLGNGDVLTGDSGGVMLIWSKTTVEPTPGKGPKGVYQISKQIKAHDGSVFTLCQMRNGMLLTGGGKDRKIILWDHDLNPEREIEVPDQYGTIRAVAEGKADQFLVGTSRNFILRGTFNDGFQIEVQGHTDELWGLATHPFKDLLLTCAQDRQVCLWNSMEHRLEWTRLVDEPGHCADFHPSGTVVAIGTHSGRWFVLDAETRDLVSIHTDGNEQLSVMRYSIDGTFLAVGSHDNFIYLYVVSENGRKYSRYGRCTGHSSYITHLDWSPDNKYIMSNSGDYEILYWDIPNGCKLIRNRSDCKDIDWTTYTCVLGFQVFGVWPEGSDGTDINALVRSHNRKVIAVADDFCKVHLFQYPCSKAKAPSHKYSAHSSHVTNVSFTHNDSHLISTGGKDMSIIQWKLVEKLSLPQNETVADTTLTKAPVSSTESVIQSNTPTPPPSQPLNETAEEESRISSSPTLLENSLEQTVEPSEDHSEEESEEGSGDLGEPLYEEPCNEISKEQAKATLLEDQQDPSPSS
T2 sequence (Q9UM73 19-1620 limits assumed): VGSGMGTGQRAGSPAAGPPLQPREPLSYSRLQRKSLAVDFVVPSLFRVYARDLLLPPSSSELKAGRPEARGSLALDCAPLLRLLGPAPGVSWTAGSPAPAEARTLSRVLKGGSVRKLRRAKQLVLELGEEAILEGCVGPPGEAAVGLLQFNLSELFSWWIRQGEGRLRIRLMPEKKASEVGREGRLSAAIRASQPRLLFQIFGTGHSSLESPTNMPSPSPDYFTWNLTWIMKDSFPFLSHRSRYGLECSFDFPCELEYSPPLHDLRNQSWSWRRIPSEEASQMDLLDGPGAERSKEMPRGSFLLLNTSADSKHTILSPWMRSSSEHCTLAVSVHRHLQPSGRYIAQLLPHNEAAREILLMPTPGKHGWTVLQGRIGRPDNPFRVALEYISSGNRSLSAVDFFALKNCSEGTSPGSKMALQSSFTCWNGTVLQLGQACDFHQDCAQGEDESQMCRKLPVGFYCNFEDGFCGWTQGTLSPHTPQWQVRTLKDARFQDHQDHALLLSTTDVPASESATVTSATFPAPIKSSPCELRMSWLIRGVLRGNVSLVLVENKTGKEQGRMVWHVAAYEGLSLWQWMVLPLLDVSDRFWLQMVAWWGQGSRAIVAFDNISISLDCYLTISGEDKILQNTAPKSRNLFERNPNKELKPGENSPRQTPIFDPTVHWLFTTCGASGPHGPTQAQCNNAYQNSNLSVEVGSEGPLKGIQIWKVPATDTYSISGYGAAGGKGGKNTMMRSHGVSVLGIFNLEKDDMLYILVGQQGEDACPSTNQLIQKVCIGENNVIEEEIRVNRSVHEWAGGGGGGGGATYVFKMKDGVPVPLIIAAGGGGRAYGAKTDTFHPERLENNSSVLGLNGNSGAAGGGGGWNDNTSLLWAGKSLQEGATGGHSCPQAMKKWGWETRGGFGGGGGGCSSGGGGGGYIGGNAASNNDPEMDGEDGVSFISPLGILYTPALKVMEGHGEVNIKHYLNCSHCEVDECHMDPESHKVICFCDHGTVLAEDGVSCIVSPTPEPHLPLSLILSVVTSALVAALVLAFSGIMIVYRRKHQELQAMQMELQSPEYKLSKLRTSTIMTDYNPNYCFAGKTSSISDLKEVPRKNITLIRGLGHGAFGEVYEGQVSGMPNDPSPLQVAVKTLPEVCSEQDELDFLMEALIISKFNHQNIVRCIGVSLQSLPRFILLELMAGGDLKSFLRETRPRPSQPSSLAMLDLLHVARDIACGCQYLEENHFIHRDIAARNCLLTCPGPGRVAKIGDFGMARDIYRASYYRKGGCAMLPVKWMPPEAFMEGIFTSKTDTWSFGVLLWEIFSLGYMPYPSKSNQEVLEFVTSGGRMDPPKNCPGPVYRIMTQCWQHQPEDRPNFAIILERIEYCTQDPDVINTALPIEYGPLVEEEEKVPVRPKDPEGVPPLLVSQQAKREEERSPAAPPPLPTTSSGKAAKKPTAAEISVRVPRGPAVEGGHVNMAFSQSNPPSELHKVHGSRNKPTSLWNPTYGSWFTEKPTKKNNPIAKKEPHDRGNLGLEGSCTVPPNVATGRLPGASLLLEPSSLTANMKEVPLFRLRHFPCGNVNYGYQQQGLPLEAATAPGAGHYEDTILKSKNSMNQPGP
Cyclin-dependent kinase 4 (Homo sapiens), sequence (P11802 whole entry): as the sequence (P11802 whole entry) above
Protein cereblon/Cyclin-dependent kinase 6 (Homo sapiens), sequence (Q00534 whole entry, looked up): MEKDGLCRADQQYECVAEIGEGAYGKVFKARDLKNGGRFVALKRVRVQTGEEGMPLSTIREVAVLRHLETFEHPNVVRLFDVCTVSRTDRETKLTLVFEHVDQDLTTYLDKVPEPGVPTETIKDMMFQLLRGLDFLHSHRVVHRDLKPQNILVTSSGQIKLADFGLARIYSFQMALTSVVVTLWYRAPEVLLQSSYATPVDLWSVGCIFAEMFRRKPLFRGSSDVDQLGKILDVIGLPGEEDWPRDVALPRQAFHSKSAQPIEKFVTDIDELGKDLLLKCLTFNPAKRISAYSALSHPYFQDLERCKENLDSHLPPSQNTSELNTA
Protein cereblon/Cyclin-dependent kinase 6 (Homo sapiens), sequence (Q96SW2 whole entry, looked up): as the sequence (Q96SW2 whole entry partner) above

CC(=O)c1c(C)c2cnc(Nc3ccc(N4CCN(CC(=O)NCCSSCCN(CC(=O)NCCNc5cccc6c5C(=O)N(C5CCC(=O)NC5=O)C6=O)C(=O)CCCCCCC(=O)N5CCC(c6cc(OC(C)C)c(Nc7ncc(Cl)c(Nc8ccccc8S(=O)(=O)C(C)C)n7)cc6C)CC5)CC4)cn3)nc2n(C2CCCC2)c1=O (centres undefined)
Activity (NCI-H3122 [1]): 68.5%
viability at 0.312 µM (NCI-H3122 [2]): 91.5%
inhibition [3]: 54.9%
Activity [4]: inactive
IC50 (NCI-H3122 [5]): 0.14 µM
Activity [6]: Non-Toxic
Activity [7]: Active
Activity [8]: Non-Toxic
Activity [9]: Non-Toxic
Activity (Mus musculus): Active
viability at 2.5 µM (NCI-H3122 [10]): 81.8%
Activity [11]: Active
Activity (NCI-H3122 [12]): 17.52%
Activity [13]: Non-Toxic
Activity (NCI-H3122 [14]): 1.35%
Activity [15]: inactive
Activity (NCI-H3122 [16]): 1.91%
EC50 [17]: 3.69 µM
Activity [18]: Active
Activity (NCI-H3122 [19]): 15.81%
IC50 (NCI-H2228): 5.56 µM
Activity (NCI-H3122 [20]): 5.85%
Activity [21]: inactive
Activity [22]: Active
viability at 0.625 µM (NCI-H3122 [23]): 88.9%
Activity [24]: inactive
IC50 [25]: 12.7 µM
Activity [26]: Non-Toxic
Activity [27]: inactive

From ChEMBL document CHEMBL5321200, “Discovery of the GSH responsive "Y-PROTACs" targeting ALK and CDK4/6 as a potential treatment for cancer” (Eur J Med Chem, 2023)
